Reference: patent US7994202B2, “Bicyclic nitrogen-containing heterocyclic compounds” (Asahi Kasei Pharma Corporation, priority 2008, dated 2011)

molecular target: T1, human EP1 receptor (Homo sapiens, UniProt P34995); experiment: Antagonist activity using cells expressing human EP1 receptor (SRE-luciferase reporter activity, PGE2 10 nM); type: cell-based; details: HEK293 cells stably expressing human EP1 receptor, 6 hours, read-out: IC50 value in the measurement of antagonist activity using human EP1 receptor expressing cells
T1 construct: expressed in transfected cells
T1 sequence (P34995 1-402): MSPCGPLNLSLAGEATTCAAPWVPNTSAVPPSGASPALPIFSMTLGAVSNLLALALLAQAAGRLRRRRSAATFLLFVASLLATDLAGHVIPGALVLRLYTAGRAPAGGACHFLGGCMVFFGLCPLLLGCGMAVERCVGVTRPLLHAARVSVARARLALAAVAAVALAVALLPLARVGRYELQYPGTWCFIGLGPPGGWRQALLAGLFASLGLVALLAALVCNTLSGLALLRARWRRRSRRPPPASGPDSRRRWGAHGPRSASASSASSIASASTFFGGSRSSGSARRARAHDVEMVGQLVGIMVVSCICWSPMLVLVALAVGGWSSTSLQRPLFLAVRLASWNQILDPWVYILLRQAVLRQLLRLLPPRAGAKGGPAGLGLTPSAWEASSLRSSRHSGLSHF
Text: (§1) Measurement of an Antagonist Activity by Using Cells Expressing Human EP1 Receptor
As a result of searching Refseq Database for prostaglandin E receptor, genetic information of human EP1 (NM_000955) receptor was obtained. Based on this sequence information, human EP1 receptor gene was cloned by PCR using human cDNA as a template and by an ordinary method to give human EP1 receptor. Then, HEK293 in which the receptor is stably expressed was established, together with a reporter gene (SRE-Luciferase) in which serum responsible element (SRE) is added at the upstream region of firefly luciferase gene. The resulting cells were seeded to a 96 well plate (5×10^4 cells/well) and cultured for one day. To the plate, PGE2 (200 nM, final concentration 10 nM) and the test compound (in an amount of 1/20, 20× of the final concentration) were added to initiate the reaction. After allowing the reaction to proceed at 37° C. for 6 hours, the medium was aspirated off, added with a luminescent agent and the reporter activity was measured. […]

IC50 [nM] | Structure (SMILES)
20 to 100 | O=C(O)c1csc(Cn2nc(-c3ccccc3)c3ccccc32)n1 [Exp.7, 2-{(3-phenyl-1H-indazol-1-yl)methyl}thiazole-4-carboxylic acid]
≤ 20 | Cc1ccccc1-c1nn(-c2nc(C(=O)O)cs2)c2ccccc12 [Exp.9]
20 to 100 | O=C(O)c1csc(-n2nc(-c3cccc(O)c3)c3ccccc32)n1 [Exp.16]
100 to 500 | O=C(O)c1ccc(-n2nc(-c3ccccc3)c3ccccc32)s1 [Exp.94]
≤ 20 | O=C(O)c1csc(-n2nc(-c3ccccc3)c3c2CC(C(F)(F)F)CC3)n1 (stereo not drawn) [Exp.102]
≤ 20 | O=C(O)c1csc(Cn2nc(-c3ccccc3)c3ccc(C(F)(F)F)cc32)n1 [Exp.104]
≤ 20 | O=C(O)c1csc(-n2nc(C3=CCCCO3)c3ccc(C(F)(F)F)cc32)n1 [Exp.105]
≤ 20 | O=C(O)c1csc(-n2nc(-c3ccccc3)c3ccc(C(F)(F)F)nc32)n1 [Exp.106]
20 to 100 | C=Cc1ccc2c(-c3ccccc3)nn(-c3nc(C(=O)OCC)cs3)c2c1 [Exp.116, Ethyl 2-(3-phenyl-6-vinyl-1H-indazol-1-yl)thiazole-4-carboxylate]
≤ 20 | O=C(O)c1ccc2c(-c3ccccc3)nn(-c3nc(C(=O)O)cs3)c2c1 [Exp.119, 2-(6-Carboxy-3-phenyl-1H-indazol-1-yl)thiazole-4-carboxylic acid]
100 to 500 | CC(=O)Nc1ccc2c(-c3ccccc3)nn(-c3nc(C(=O)O)cs3)c2c1 [Exp.122]
≤ 20 | CN(C)c1ccc2c(-c3ccccc3)nn(-c3nc(C(=O)O)cs3)c2c1 [Exp.154]
≤ 20 | O=C(O)c1csc(-n2nc(-c3ccccc3)c3ncc(C(F)(F)F)cc32)n1 [Exp.164]
100 to 500 | O=C(O)c1csc(-n2nc(-c3ccccc3)c3ccc(Sc4ccc(OC(F)(F)F)cc4)nc32)n1 [Exp.177]
20 to 100 | O=C(O)c1csc(-n2nc(-c3ccccc3)c3ccc(Sc4cccc(C(F)(F)F)c4)nc32)n1 [Exp.179]
20 to 100 | O=C(O)c1csc(-n2nc(-c3cccs3)c3ccccc32)n1 [Exp. 51]
20 to 100 | N#Cc1ccc2c(-c3ccccc3)nn(-c3nc(C(=O)O)cs3)c2c1 [Exp. 118, 2-(6-Cyano-3-phenyl-1H-indazol-1-yl)thiazole-4-carboxylic acid]
100 to 500 | Cn1cncc1C(=O)Nc1ccc2c(-c3ccccc3)nn(-c3nc(C(=O)O)cs3)c2c1 [Exp. 130]
100 to 500 | O=C(O)c1csc(-n2nc(-c3ccccc3)c3ccc(NC(=O)C4CCCC4)cc32)n1 [Exp. 131]
100 to 500 | O=C(O)c1csc(-n2nc(-c3ccccc3)c3ccc(NC(=O)C45CC6CC(CC(C6)C4)C5)cc32)n1 [Exp. 133]
100 to 500 | O=C(O)c1csc(-n2nc(-c3ccccc3)c3ccc(NC(=O)C4CC4)cc32)n1 [Exp. 135]
100 to 500 | CC(C)S(=O)(=O)Nc1ccc2c(-c3ccccc3)nn(-c3nc(C(=O)O)cs3)c2c1 [Exp. 141]

IC50 [nM] | Structure (SMILES)
100 to 500 | CCC(C)S(=O)(=O)Nc1ccc2c(-c3ccccc3)nn(-c3nc(C(=O)O)cs3)c2c1 (stereo not drawn) [Exp. 142]
100 to 500 | O=C(O)c1csc(-n2nc(-c3ccccc3)c3ccc(NCc4ccccc4F)cc32)n1 [Exp. 145]
100 to 500 | O=C(O)c1csc(-n2nc(-c3ccccc3)c3ccc(NCc4cccc(F)c4)cc32)n1 [Exp. 146]
100 to 500 | O=C(O)c1csc(-n2nc(-c3ccccc3)c3ccc(NCc4ccc(F)cc4)cc32)n1 [Exp. 147]
20 to 100 | O=C(O)c1csc(-n2nc(-c3ccccc3)c3ccc(NCc4ccccn4)cc32)n1 [Exp. 148]
100 to 500 | O=C(O)c1csc(-n2nc(-c3ccccc3)c3ccc(NCc4cccnc4)cc32)n1 [Exp. 149]
100 to 500 | O=C(O)c1csc(-n2nc(-c3ccccc3)c3ccc(NCC4CCOC4)cc32)n1 (stereo not drawn) [Exp. 150]
100 to 500 | CCC(C)CNc1ccc2c(-c3ccccc3)nn(-c3nc(C(=O)O)cs3)c2c1 (stereo not drawn) [Exp. 151]
20 to 100 | O=C(O)c1csc(-n2nc(-c3ccccc3)c3ccc(NCCc4ccccc4)cc32)n1 [Exp. 152]
≤ 20 | O=C(O)c1csc(-n2nc(-c3ccccc3)c3ccc(Cl)cc32)n1 [Exp. 156]
≤ 20 | O=C(O)c1csc(-n2nc(-c3ccccc3)c3ccc(Br)cc32)n1 [Exp. 157]
≤ 20 | O=C(O)c1csc(-n2nc(-c3ccccc3)c3ccc(I)cc32)n1 [Exp. 158]
≤ 20 | C/C=C/c1ccc2c(-c3ccccc3)nn(-c3nc(C(=O)O)cs3)c2c1 [Exp. 159]
≤ 20 | C/C=C\c1ccc2c(-c3ccccc3)nn(-c3nc(C(=O)O)cs3)c2c1 [Exp. 160]
≤ 20 | C=Cc1ccc2c(-c3ccccc3)nn(-c3nc(C(=O)O)cs3)c2c1 [Exp. 162]
100 to 500 | CCSc1ccc2c(-c3ccccc3)nn(-c3nc(C(=O)O)cs3)c2n1 [Exp. 165]
100 to 500 | CC(C)C(C)Sc1ccc2c(-c3ccccc3)nn(-c3nc(C(=O)O)cs3)c2n1 (stereo not drawn) [Exp. 166]
20 to 100 | O=C(O)c1csc(-n2nc(-c3ccccc3)c3ccc(N4CCC4)nc32)n1 [Exp. 167]
20 to 100 | O=C(O)c1csc(-n2nc(-c3ccccc3)c3ccc(Sc4ccccc4F)nc32)n1 [Exp. 175]
100 to 500 | O=C(O)c1csc(-n2nc(-c3ccccc3)c3ccc(SCc4ccccc4)nc32)n1 [Exp. 176]
20 to 100 | O=C(O)c1csc(-n2nc(-c3ccccc3)c3ccc(Sc4cccc(O)c4)nc32)n1 [Exp. 178]

molecular target: T1, human EP1 receptor; experiment: Antagonist activity using cells expressing human EP1 receptor (intracellular Ca2+ assay, Fura 2-AM); type: cell-based; details: HEK293 cells stably expressing human EP1 receptor, PGE2 10 nM
Procedure: as §1
Cells expressing human EP1 receptor were suspended in an assay buffer to the concentration of 5×10^6 cells/ml, added with Puronic F-127 (final concentration 0.2%), and Fura 2-AM (final concentration 5 uM), followed by incubation at 37° C. for 30 minutes. After washing twice with the assay buffer, the cells were again suspended in the assay buffer to 1×10^6 cells/60 ul, and then transferred to a 96 well UV plate (1×10^6 cells/60 ul/well). Thereafter, by using a fluorescent chemical screening system (FDSS4000, Hamamatsu Photonics K.K.), intracellular Ca^2+ concentration was measured after adding 20 ul of each of the test compounds and PGE2 (5× of the final concentration for both). Ca^2+ concentration was measured by determining fluorescence intensity after irradiation with two excitation wavelengths, i.e., 340 and 380 nm.
Furthermore, EP1 antagonist activity was calculated as a ratio (%) of inhibiting increase in intracellular Ca^2+ concentration by PGE2 (10 nM).
Assay buffer: 20 mM HEPES/KOH (pH 7.4), 115 mM NaCl, 5.4 mM KCl, 0.8 mM MgCl2, 0.8 mM CaCl2, 13.8 mM D-glucose, 0.1% BSA

IC50 [nM] | Structure (SMILES)
100 to 300 | Cc1ccccc1-c1nn(-c2nc(C(=O)O)cs2)c2ccccc12 [Exp.9]
100 to 300 | O=C(O)c1csc(-n2nc(-c3cccc(O)c3)c3ccccc32)n1 [Exp.16]
≤ 100 | O=C(O)c1csc(-n2nc(C3=CCCCO3)c3ccc(C(F)(F)F)cc32)n1 [Exp.105]
≤ 100 | O=C(O)c1csc(-n2nc(-c3ccccc3)c3ccc(C(F)(F)F)nc32)n1 [Exp.106]

molecular target: T1, human EP1 receptor; experiment: Receptor binding test using cells expressing human EP1 receptor ([3H]PGE2 binding inhibition, membrane fraction); details: membrane fraction of HEK293 cells expressing human EP1 receptor, [3H]PGE2 1 nM; read-out: Ki value in the measurement of [3H]PGE2 binding inhibitory activity
Procedure: Receptor Binding Test Using Cells Expressing Human EP1 Receptor
Inhibitory activity of the test compounds on binding of [^3H]PGE2 in HEK293 cells stably expressing human EP1 receptor was measured.
HEK293 cells, which stably express human EP1 receptor, were established by using the gene for human EP1 receptor, and then a membrane fraction was prepared therefrom. Thus-prepared membrane fraction was incubated at 30° C. for 90 minutes with a reaction solution (200 μL/well) which includes the test compound and [^3H]PGE2. Upon the completion of the reaction, the reaction solution was aspirated off under reduced pressure, and the [^3H]PGE2 bound to the membrane fraction was trapped by using Unifilter Plateg CF/C (manufactured by Packard) and the bound radioactivity was counted with a liquid scintillator.
Kd value was obtained from a Scatchard plot. Non-specific binding was obtained from the binding in the presence of an excess amount (10 μM) of non-labeled PGE2. For the measurement of an inhibitory activity of the test compound on [^3H]PGE2 binding, [^3H]PGE2 (1 nM) and various concentrations of the test compound were added. Meanwhile, for all of the reactions, the buffer as described below was used.
Buffer; 10 mM MES/NaOH (pH 6.0), 10 mM MgCl2, 1 mM EDTA, 0.1% BSA
Dissociation constant of the compounds, i.e., Ki, was obtained according to the following equation. […]

Ki [nM] | Structure (SMILES)
≤ 100 | O=C(O)c1csc(-n2nc(C3=CCCCO3)c3ccc(C(F)(F)F)cc32)n1 [Exp.105]
≤ 100 | O=C(O)c1csc(-n2nc(-c3ccccc3)c3ccc(C(F)(F)F)nc32)n1 [Exp.106]

test system: SD rats; experiment: Action of extending interval of micturition in rat in wakefulness II (0.3% acetic acid-induced cystitis); type: in vivo; details: male SD rats in wakefulness, 0.3% acetic acid cystitis, intravenous
Text: SD rats (Charles River Laboratories Japan, Inc., male) were employed as experimental animals. Each rat was put under anesthesia by inhalation of 2% isoflurane (laughing gas:oxygen=7:3), and then was fixed in the supine position. Anesthesia was maintained by the inhalation of 2% isoflurane. The abdominal part was incised along the midline, and the urinary bladder was exposed from the intraperitoneal cavity. The vertex vesicae part was subjected to a small incision, and a polyethylene tube (PE-50: Becton Dickinson and Company) was inserted into the bladder and fixed. […] Thereafter, while physiological saline warmed to 37° C. was injected to the other end of the tube inserted into the bladder through one branch of a three-way stopcock at a rate of 3.0 mL/hr, the internal pressure of the bladder was continuously recorded from another branch using a pressure amplifier through a pressure transducer. The excreted urine was cumulatively accumulated in a vessel on a digital balance, and the weight change was simultaneously measured. […] The value obtained before the administration was taken from an average value of the values measured for 30 minutes before the administration, and the value obtained after the administration was taken from an average value of the values measured for 60 minutes immediately after the administration. […]

Structure (SMILES) | amount of micturition
O=C(O)c1csc(-n2nc(-c3ccccc3)c3ccc(C(F)(F)F)cc32)n1 [Exp.77] | increase in the amount of micturition

same assay, conditions: male SD rats in wakefulness, 0.3% acetic acid cystitis, intravenous, 60 minutes after administration

Structure (SMILES) | micturition interval extension [%]
O=C(O)c1csc(-n2nc(-c3ccccc3)c3ccc(C(F)(F)F)cc32)n1 [Exp.77] | ≥ 30
